Here are results for 1 compound from article PMC4640650 (Science Advances, 2015).

The structures appear in SMILES notation.

This assay has as its target ATP synthase c-subunit (c9 rotor ring) (Mycolicibacterium phlei, UniProt A0A5N5V239). Nature of the assay: X-ray cocrystal structure. Format: binding.

As for `COc1nc2ccc(Br)cc2cc1[C@@H](c1ccccc1)[C@@](O)(CCN(C)C)c1cccc2ccccc12` [BDQ, Bedaquiline], the IC50 (usually the concentration at which inhibition is half-maximal) lay within 20 to 25 nM.
